Results taken from patent US20210047278A1, “E3 UBIQUITIN LIGASE AGONISTS, PHARMACEUTICAL COMPOSITIONS INCLUDING THE E3 UBIQUITIN LIGASE AGONISTS, RELATED METHODS OF USE” (FRED HUTCHINSON CANCER RESEARCH CENTER, priority 2018, published 2021).
Read-outs that look alike come from different tables or passages of the source.

Assays:
Assay type in all cases: binding
FBW7^ARG+pCycE = biological target: T1, FBW7^ARG+pCycE (Homo sapiens, UniProt Q969H0, R505L); test: FBW7^ARG-cyclin E agonist ALPHAscreen (primary PRUN, confirmation CRUN1, dose-response DRUN); conditions: for EC50 / Emax: DRUN dose-response; for Emax: relative to WT-FBW7+pCycE, read-out: FBW7 ACT Averaged Max % Response
T1 construct: GST (TEV site and flexible linker) (N, cleaved yes); made in house; host or cells: SF9 insect cells (baculovirus)
T1 sequence (Q969H0 64-707 R505L): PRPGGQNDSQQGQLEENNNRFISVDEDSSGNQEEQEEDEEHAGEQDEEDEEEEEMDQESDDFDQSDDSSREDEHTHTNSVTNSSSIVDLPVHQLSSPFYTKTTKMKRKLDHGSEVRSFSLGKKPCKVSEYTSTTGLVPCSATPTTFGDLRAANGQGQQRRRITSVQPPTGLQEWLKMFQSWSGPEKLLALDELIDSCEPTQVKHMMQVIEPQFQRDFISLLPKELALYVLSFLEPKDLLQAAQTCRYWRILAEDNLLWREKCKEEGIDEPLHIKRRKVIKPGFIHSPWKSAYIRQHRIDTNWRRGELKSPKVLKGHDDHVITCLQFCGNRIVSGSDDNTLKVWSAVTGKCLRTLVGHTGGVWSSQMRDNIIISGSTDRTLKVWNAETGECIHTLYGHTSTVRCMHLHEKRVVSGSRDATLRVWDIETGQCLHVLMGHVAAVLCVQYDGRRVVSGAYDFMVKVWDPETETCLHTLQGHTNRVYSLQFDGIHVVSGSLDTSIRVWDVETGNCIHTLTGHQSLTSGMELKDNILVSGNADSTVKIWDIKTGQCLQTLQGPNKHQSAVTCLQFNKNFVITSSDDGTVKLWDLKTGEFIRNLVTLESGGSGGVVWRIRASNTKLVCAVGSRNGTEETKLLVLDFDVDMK
T1 sequence (P63208 2-163 partner): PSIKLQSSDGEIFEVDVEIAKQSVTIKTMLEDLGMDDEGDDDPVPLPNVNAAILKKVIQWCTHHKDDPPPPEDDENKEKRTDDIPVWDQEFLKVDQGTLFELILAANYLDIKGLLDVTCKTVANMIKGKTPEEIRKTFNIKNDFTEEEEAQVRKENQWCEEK
From the text: FBW7^ARG refers to a class of loss-of-function mutations of the of FBW7 ubiquitin ligase that target a key phosphate-binding arginine residue in the FBW7 substrate-binding domain. These mutations are commonly found in human cancers and promote tumorigenesis by impairing the interactions between FBW7 and its substrates, such as cyclin E and Myc. Described herein is a high throughput screen (HTS) to identify agonists, such as small molecules, that augment FBW7^ARG-substrate binding. In an embodiment, the HTS is based on the Amplified Luminescent Proximity Homogenous Assay (ALPHAscreen) because it detects protein-protein interactions with a large dynamic range. ALPHAscreen is a bead-based proximity assay wherein donor beads contain a photosensitizer, phthalocyanine, and acceptor beads contain thioxene, anthracene and rubrenein in sufficient quantities to generate a chemiluminescence/fluorescence reaction (FIG. 4A). Upon excitation with excitation illumination, such as light having a wavelength of 680 nm, of the donor beads, phthalocyanine converts ambient oxygen to singlet oxygen, which can diffuse approximately 200 nm within its 4-microsecond half-life. If an acceptor bead is in close proximity to an excited donor bead, singlet oxygen transfers its energy to the acceptor, resulting in emitted light at a broad bandwidth of −520-620 nm. The HTS-compatible FBW7/cyclin E ALPHAscreen assay described herein uses streptavidin coupled donor beads and Ni-chelate acceptor beads. In this assay, biotinylated cyclin E phosphopeptide and the His-tagged FBW7 mutant protein have high affinity for the donor and acceptor beads, respectively (FIG. 4B). A small molecule that is able to bridge the binding sites of the peptide and the mutant protein (or induce a conformational change that increases affinity of the protein for the peptide) will bring the donor and acceptor beads in close proximity to each other, resulting in an ALPHA signal. As designed, this assay format is a very sensitive, non-radioactive, homogenous “mix-and-read” format that is HT compatible in 384 and 1536 well formats.
In the 384-well screening assay, 10 uL of acceptor beads with 25 nM of the FBW7^ARG (RLFBW7) are dispensed to test wells; acceptor beads with 25 nM of the wt-FBW7 protein (WTFBW7) are dispensed to control wells. Test compounds are then added by pintool transfer and the mixture is incubated for 30 minutes. An additional 10 uL of donor beads with 25 nM cyclin E phosphopeptide is then added to all wells and the plate is incubated for 4 hours before the ALPHA signal is measured.
In preparation for large-scale screening, the assay was miniaturized to a 1536-well format. The miniaturized screen performed outstandingly in all respects. The screen was enhanced with respect to several parameters and assayed its performance using mutant FBW7 and wt-FBW7, as well as non-specific assay agonists. […] For example, the following Z′-scores/FBW7 concentrations were obtained: 6.25 nM/Z′=0.62, 12.5 nm/Z′=0.85, 25.0 nM/Z′=0.84.
1. Add 2.5 uL of RLFBW7/cycE˜P/Ni beads: Final [25 nM/25 nM/10 ug/ml].
2. Add 2.5 uL of WTFBW7/cycE˜P/Ni beads: Final [25 nM/25 nM/10 ug/ml].
4. Add 2.5 uL of SA beads to all wells Final [10 ug/ml],
5. Add 30 nL of compounds,
6. Read ALPHAscreen on Envision
The large-scale FBW7 agonist ALPHAscreen was completed using FBW7^ARG and a phosphorylated cyclin E (pCycE) degron peptide. Wt-FBW7+pCycE-peptide was the “high control”, and Wt-FBW7+unphosph. CycE peptide was the “low control”. The screen was performed on the 645,000-compound Scripps Diversity Library using 1536-well format and drug concentrations of 26.1 μM. An algorithm aided hit identification based on the average percent activation for all compounds and their standard deviation.
A confirmation assay of all 853 compounds in triplicate using a single concentration (26.1 μM). […]

FBW7^ARG (RLFBW7) alone = biological target: T2, FBW7^ARG (RLFBW7) alone (Homo sapiens, UniProt Q969H0, R505L); test: Counterscreen 1 ALPHAscreen with FBW7^ARG alone (CSRUN1/DCSRUN1); conditions: dose-response counterscreen; for Emax: read-out: RLFBW7 ACT DCSRUN1 Averaged Max % Response
T2 construct: GST (TEV site and flexible linker) (N, cleaved yes); made in house; host or cells: SF9 insect cells (baculovirus)
T2 sequence (Q969H0 64-707 R505L): as the sequence (Q969H0 64-707 R505L) above
T2 sequence (P63208 2-163 partner): as the sequence (P63208 2-163 partner) above
Method: (§1) Studies in 384-well format were performed using the ENVISION system. Reagent concentrations (see FIG. 6A), order of addition, pH (see FIG. 6B), and reducing agent were altered with the goal of enhancing the dynamic range between wt-FBW7 (the positive control) and FBW7^ARG (FIG. 6 and not shown). Wt-FBW7 produced a signal 100× greater with phosphorylated cyclin E degron peptide compared with unphosphorylated, which represents the assay's maximum range (FIG. 6C). […] This assay thus detects the residual affinity of the FBW7^ARG-substrate interaction, which, as predicted, is stronger than wt-FBW7 protein with unphosphorylated cyclin E peptide. Concurrent with this primary assay, counter ALPHAscreens were developed which omitted either FBW7 or peptide (to eliminate hits that are general ALPHAscreen agonists), or used an irrelevant phosphopeptide (to eliminate compounds that simply augment binding to phosphopeptides). […]
(§2) The 77 hits were subjected to a dose-response assay in which each compound was tested in triplicate in a 10 point 3-fold dilutional series, to a maximum concentration of approximately 87 μM. Three screens were performed, using FBW7^ARG+pCycE (DRUN), FBW7^ARG (DCSRUN1), or pCycE alone (DCSRUN2). See TABLES 2, 3, and 4, respectively, and FIG. 10A. All of the assays performed extremely well, and threshold of 10% activation (relative to WT-FBW7+pCycE) was set as positive. […] Many hits fell into shared structure cluster ID groups, reinforcing the idea that they function as specific agonists (see below and TABLE 5).

pCycE alone = test: Counterscreen 2 ALPHAscreen with cyclin E phosphopeptide alone (CSRUN2/DCSRUN2); conditions: for CyCEP ACT DCSRUN2 Averaged Max % Response: activation relative to WT-FBW7+pCycE, averaged maximum; for EC50: dose-response, triplicate, 10 point 3-fold dilutional series, read-out: CyCEP ACT DCSRUN2 Final EC50
Method: as §1, §2

[1] = raw curve fit, read-out: FBW7 ACT EC50 Curve Fit Raw, Molar
[2] = triplicate, 10 point 3-fold dilution, max approx. 87 μM, read-out: FBW7 ACT Final EC50, Molar
[3] = confirmation assay, triplicate, single concentration 26.1 μM, read-out: FBW7 ACT CRUN1 Avg % Response and Stdev
[4] = primary screen, 1536-well, 26.1 μM, FBW7^ARG + pCycE degron peptide, high control wt-FBW7+pCycE, read-out: FBW7 ACT PRUN % Response
[5] = raw curve fit, read-out: RLFBW7 ACT DCSRUN1 EC50 Curve Fit Raw
[6] = read-out: RLFBW7 ACT DCSRUN1 Final EC50

Compound	EC50 (FBW7^ARG+pCycE; [1]) [µM]	Emax (FBW7^ARG+pCycE) [%]	EC50 (FBW7^ARG+pCycE; [2]) [µM]	activation at 26.1 µM (FBW7^ARG+pCycE; [3]) [%]	activation at 26.1 µM (FBW7^ARG+pCycE; [4]) [%]	EC50 (FBW7^ARG (RLFBW7) alone; [5]) [µM]	Emax (FBW7^ARG (RLFBW7) alone) [%]	EC50 (FBW7^ARG (RLFBW7) alone; [6]) [µM]	CyCEP ACT DCSRUN2 Averaged Max % Response (pCycE alone) [%]	EC50 (pCycE alone) [µM]
CN(C)CC[S+]([O-])c1cc(-c2cn[nH]c2)ccc1NC(=O)[C@@H]1Cc2cc(F)ccc2CN1.O=C(O)C(F)(F)F (stereo partly shown) [SR-00000005398-1]	9.2	12.9	> 65.3	2.28 ± 0.37	1.91	0.0925	0.77	> 65.3	0.21	> 65.3
O=C(Cc1ccc(Br)cc1)N1CCC(c2nc(O)c3cnccc3n2)C1.O=C(O)C(F)(F)F (stereo not shown) [SR-00000005455-1]	30.2	24.7	> 65.3	4.65 ± 0.38	2.32	0.0129	0.43	> 65.3	0.31	> 65.3
O=C(NCc1ccc(C(=O)NCCc2ccccn2)cc1)Nc1ccc(-c2cn[nH]c2)cc1 [SR-00000005517-1]	31.5	20	> 65.3	4.71 ± 0.2	1.94	28.3	100	28.2		
Cc1ncn(-c2ccc(Nc3cc(-c4nocc4-c4ccccn4)ccn3)cc2)n1.O=C(O)C(F)(F)F [SR-00000006872-1]	2.6	12.1	> 65.3	4.15 ± 0.5	2.76	83.6	2.08	> 65.3	0.34	> 65.3
O=C([C@H]1CC[C@H](Nc2nccc(-c3ccc4nc(C5CC5)nc(O)c4c3)n2)CC1)N1CCCC1 [SR-00000008677-1]		35.9	> 65.3	4.42 ± 0.03	2.63	0.0572	0.06	> 65.3		
Cc1cccc(CC(=O)Nc2cnn(-c3cccc(C(=O)N4CCNC(=O)CC4)c3)c2)c1 [SR-01000188911-1]	7.5	23.6	> 65.3	2.88 ± 0.43	4.34	1.7	-0.141	> 65.3		
COc1ccccc1N1C(=O)c2ccc(C(=O)Nc3cc([N+](=O)[O-])ccc3O)cc2C1=O [SR-01000236956-1]	22.1	10.6	> 65.3	3.72 ± 0.2	2.14	21.2	2.25	> 65.3		
Cc1ccnc(N2CCC(C(=O)Nc3ccccc3Br)CC2)n1 [SR-01000330228-1]	0.0482	6.46	> 65.3	3.43 ± 0.23	2.08		0.25	> 65.3		
CCCOC(=O)C1=C(C)N(CC)C(=O)NC1c1ccccc1[N+](=O)[O-] (stereo not shown) [SR-01000417871-1]	8.6	17.3	> 67.2	18.3 ± 0.97	2.55	2.8	0.3	> 67.2		

The next lines start with results.

EC50 (FBW7^ARG+pCycE; [1]) [µM]	Emax (FBW7^ARG+pCycE) [%]	EC50 (FBW7^ARG+pCycE; [2]) [µM]	activation at 26.1 µM (FBW7^ARG+pCycE; [3]) [%]	activation at 26.1 µM (FBW7^ARG+pCycE; [4]) [%]	EC50 (FBW7^ARG (RLFBW7) alone; [5]) [µM]	Emax (FBW7^ARG (RLFBW7) alone) [%]	EC50 (FBW7^ARG (RLFBW7) alone; [6]) [µM]	Compound	CyCEP ACT DCSRUN2 Averaged Max % Response (pCycE alone) [%]	EC50 (pCycE alone) [µM]
18.6	19.3	> 65.3	2.52 ± 0.29	2.52	12.8	0.69	> 65.3	COc1cc(-c2ccnc(N)n2)ccc1NC(=O)[C@H]1COc2ccccc2O1.O=C(O)C(F)(F)F [SR-00000003239-1]	0.15	> 65.3
8.8	16.4	> 65.3	3.91 ± 0.47	3.51	4	0.2	> 65.3	NC(c1nc2cc(-c3ccncc3)cnc2[nH]1)c1ccc(F)cc1F.O=C(O)C(F)(F)F (stereo not shown) [SR-00000003416-1]	0.29	> 65.3
7.2	15.4	> 16.3	7.7 ± 0.45	2.73	2.2	0.27	> 16.3	CN(C)CCN(C)c1nc([C@H](N)Cc2cccc(F)c2)cc2ccc(-c3cn[nH]c3)cc12.O=C(O)C(F)(F)F [SR-00000006284-1]	0.41	> 16.3
0.0458	7.3	> 56.6	10.7 ± 0.62	1.88	0.136	-0.031	> 56.6	O=C(Nc1ccc2oc(-c3ccc4ccccc4c3)nc2c1)c1cccc(Cl)c1Cl [SR-01000415504-1]		
7.1	16.5	> 40.4	7.38 ± 0.72	4.51	0.0053	2.4	> 40.4	CCc1ccc(N2CC(C(=O)NCC(C)(C)CNC(=O)C3CC(=O)N(c4ccc(CC)cc4)C3)CC2=O)cc1 (stereo not shown) [SR-01000537224-1]		
9.2	16	> 49.8	3.13 ± 0.23	2.1		1.58	> 49.8	COc1cc2c(cc1OC)C(COc1ccc([N+](=O)[O-])cc1)N(C(=O)c1ccc3c(c1)OCO3)CC2 (stereo not shown) [SR-01000568734-1]		
0.0032	11.6	> 54.6	2.82 ± 0.29	1.87		1.99	> 54.6	COc1ccc(NC(=O)c2cc(S(=O)(=O)N3CCN(c4ccccn4)CC3)ccc2F)cc1 [SR-01000579121-1]		
